pIC50: −log10 of the molar value.
Target: human PDHK2 (hPDHK2) (Homo sapiens (Human), UniProt Q15119)
Assay: Inhibitory action of PDHK2 activity (PDH/hPDHK2 complex, residual PDH activity by NADH absorbance at 340 nm)
Format: biochemical
Settings: FLAG-tagged recombinant hPDHK2 with porcine heart PDH complex; PDHK reaction 45 min at room temperature
Method: In the case of human PDHK2 (hPDHK2, NCBI Reference Database Accession number NM_002611.4), modified hPDHK2 cDNA wherein FLAG-Tag sequence was added to the N terminal of hPDHK2 cDNA clone (pReceiver-M01/PDK2-GeneCopoeia) as the base was prepared by polymerase chain reaction (PCR) and ligated to the NdeI/EcoRI site of pET-17b vector (Merck KGaA, Catalog Number 69663-3). The recombinant construct was transformed into Escherichia coli DH5a. The recombinant clones were identified, and plasmid DNA was isolated and subjected to the DNA sequence analysis. One clone which had the expected nucleic acid sequence was selected for expression work.
For expression of hPDHK2 activity, Escherichia coli strain BL21(DE3) cells (Merck KGaA, Catalog Number 69450-4) were transformed with the pET17b vector containing modified hPDHK2 cDNA. The Escherichia coli were grown to an optical density 0.6 ([…]) at 30° C. Protein expression was induced by the addition of 500 μmol/L isopropyl-β-thiogalactopyranoside. The Escherichia coli were cultured at 20° C. for 17 to for 18 hr and harvested by centrifugation. The harvested Escherichia coli was resuspended in a suspension buffer (20 mmol/L HEPES-NaOH, 500 mmol/L sodium chloride, 1% ethylene glycol, 0.1% Pluronic (registered trademark) F-68 (pH 8.0), cOmplete, EDTA-free (Roche) (pH 8.0)), and disrupted by a microfluidizer M-110H (MIZUHO INDUSTRIAL CO., LTD.). The precipitate was removed by centrifugation and the supernatant was added to DDDDK-tagged Protein PURIFICATION GEL (MEDICAL & BIOLOGICAL LABORATORIES CO., LTD., Code No. 3329). DDDDK-tagged Protein PURIFICATION GEL was washed with a washing buffer (20 mmol/L HEPES-NaOH, 500 mmol/L sodium chloride, 1% ethylene glycol, 0.1% Pluronic F-68 (pH 8.0)) and the bound protein was eluted with elution buffer 1 (20 mmol/L HEPES-NaOH, 100 μg/mL peptide (amino acid sequence DYKDDDDK) (SEQ ID NO: 1), 500 mmol/L sodium chloride, 1% ethylene glycol, 0.1% Pluronic F-68 (pH 8.0)). The eluted fractions containing FLAG-Tagged protein were pooled, concentrated by an ultrafiltration method, added to a gel filtration column (HiLoad 26/60 Superdex 200 (GE Healthcare Life Sciences, Code No. 17-1070-01)), and eluted with elution buffer 2 (20 mmol/L HEPES-NaOH, 150 mmol/L sodium chloride, 0.5 mmol/L ethylenediaminetetraacetic acid (EDTA), 1% ethylene glycol, 0.1% Pluronic F-68 (pH 8.0)). The eluted fractions were pooled and preserved at −80° C.
PDH (porcine heart PDH complex, Sigma P7032) and 0.5 μg/mL hPDHK2 were mixed in an assay buffer (50 mmol/L 3-morpholinopropanesulfonic acid (pH 7.0), 20 mmol/L dipotassium hydrogen phosphate, 60 mmol/L potassium chloride, 2 mmol/L magnesium chloride, 0.4 mmol/L EDTA, 0.2% poloxamer, 2 mmol/L dithiothreitol) so that the final concentration of PDH was 0.025 U/mL, and the mixture was incubated at 4° C. overnight to obtain a PDH/hPDHK2 complex solution.
PDH was mixed with the assay buffer so that the final concentration was 0.025 U/mL, and the mixture was incubated at 4° C. overnight to prepare a PDH solution.
The test compounds were diluted with DMSO. […] DMSO (1.5 μL) was added to control wells instead of test compound. In addition, DMSO (1.5 μL) was added to blank wells instead of the test compound, and PDH solution was added instead of the PDH/hPDHK2 complex solution. To measure an inhibitory action of the test compound on the PDHK activity inherent in the PDH solution, a test compound was added and the PDH solution instead of the PDH/hPDHK2 complex solution was added to a blank+test compound well.
Then, 10 μL of substrates (5 mmol/L sodium pyruvate, 5 mmol/L Coenzyme A, 12 mmol/L NAD, 5 mmol/L thiamine pyrophosphate, diluted with assay buffer) were added. The mixture was incubated at room temperature for 90 min, and the residual PDH activity was measured.
The absorbance of each well at 340 nm was measured using a microplate reader to detect NADH produced by the PDH reaction. […]

Compound | pIC50
C[C@H]1Cn2nc(C3(F)CC3)cc2-c2cnnc([C@@](C)(O)C(F)(F)F)c21 (racemic) [Example 101, (R)-1,1,1-trifluoro-2-[(R)-9-(1-fluorocyclopropyl)-5-methyl-5,6-dihydropyrazolo[1′,5′:1,2]pyrido[3,4-d]pyridazin-4-yl]propan-2-ol and (S)-1,1,1-trifluoro-2-[(S)-9-(1-fluorocyclopropyl)-5-methyl-5,6-dihydropyrazolo[1′,5′:1,2]pyrido[3,4-d]pyridazin-4-yl]propan-2-ol] | 7.53
C[C@H]1Cn2nc(N3CCOCC3)cc2-c2cnc([C@@](C)(O)C(F)(F)F)n21 [Example 74] | 7.74
C[C@H]1Cn2nc(OCC34CCC(C#N)(CC3)CC4)cc2-c2cnc([C@@](C)(O)C(F)(F)F)n21 [Example 89] | 7.42
C[C@H]1Cn2nc(OCC#N)cc2-c2onc([C@@](C)(O)C(F)(F)F)c21 (racemic) [Example 42] | 7.72
C[C@H]1Cc2nn(CCC#N)cc2-c2onc([C@@](C)(O)C(F)(F)F)c21 (racemic) [Example 32] | 7.70
C[C@H]1Cn2nc(C34CCC(C#N)(CC3)CC4)cc2-c2cnc([C@@](C)(O)C(F)(F)F)n21 [Example 71, 4-((S)-5-methyl-3-((R)-1,1,1-trifluoro-2-hydroxypropan-2-yl)-5,6-dihydroimidazo[1,5-a]pyrazolo[5,1-c]pyrazin-9-yl)bicyclo[2.2.2]octane-1-carbonitrile] | 8.18
C[C@H]1Cc2nn(CC(C)(C)O)cc2-c2onc([C@@](C)(O)C(F)(F)F)c21 (racemic) [Example 38] | 7.60
C[C@H]1Cn2nc(O[C@H]3C[C@@](C)(C#N)C3)cc2-c2onc([C@@](C)(O)C(F)(F)F)c21 (racemic) [Example 48] | 7.74
C[C@H]1Cn2nc(N3CC4CC3C4)cc2-c2cnc([C@@](C)(O)C(F)(F)F)n21 [Example 83] | 7.73
C[C@H]1Cc2[nH]ncc2-c2onc([C@@](C)(O)C(F)(F)F)c21 [Example 28, (R)-1,1,1-trifluoro-2-((S)-4-methyl-5,6-dihydro-4H-isoxazolo[5,4-e]indazol-3-yl)propan-2-ol] | 8.07
C[C@H]1Cn2nc(N3CCC4(CC3)COC4)cc2-c2cnc([C@@](C)(O)C(F)(F)F)n21 [Example 77] | 7.84
C[C@H]1Cc2nn([C@H]3C[C@@](C)(C#N)C3)cc2-c2onc([C@@](C)(O)C(F)(F)F)c21 (racemic) [Example 58, (1R,3s)-1-methyl-3-((S)-4-methyl-3-((R)-1,1,1-trifluoro-2-hydroxypropan-2-yl)-4,5-dihydro-7H-isoxazolo[5,4-e]indazol-7-yl)cyclobutane-1-carbonitrile and enantiomer thereof] | 7.69
COCCOc1cc2n(n1)C[C@H](C)n1c-2cnc1[C@@](C)(O)C(F)(F)F [Example 68] | 7.82
C[C@H]1Cc2nn([C@H]3CC[C@](C)(O)CC3)cc2-c2onc([C@@](C)(O)C(F)(F)F)c21 (racemic) [Example 55, (1S,4r)-1-methyl-4-((S)-4-methyl-3-((R)-1,1,1-trifluoro-2-hydroxypropan-2-yl)-4,5-dihydro-7H-isoxazolo[5,4-e]indazol-7-yl)cyclohexan-1-ol and enantiomer thereof] | 7.84
C[C@H]1Cc2nn(C3CC(C#N)C3)cc2-c2onc([C@@](C)(O)C(F)(F)F)c21 (stereo in doubt) [Example 30] | 7.67
C[C@H]1Cn2nc(OCF)cc2-c2onc([C@@](C)(O)C(F)(F)F)c21 [Example 64, (R)-1,1,1-trifluoro-2-((R)-8-(fluoromethoxy)-4-methyl-4,5-dihydroisoxazolo[5,4-c]pyrazolo[1,5-a]pyridin-3-yl)propan-2-ol] | 8.12

Compound | pIC50
C[C@H]1Cc2nn(CCC(C)(C)O)cc2-c2onc([C@@](C)(O)C(F)(F)F)c21 [Example 41] | 8.04
C[C@H]1Cn2nc(C3CCOCC3)cc2-c2onc([C@@](C)(O)C(F)(F)F)c21 [Example 61, (R)-1,1,1-trifluoro-2-((R)-4-methyl-8-(tetrahydro-2H-pyran-4-yl)-4,5-dihydroisoxazolo[5,4-c]pyrazolo[1,5-a]pyridin-3-yl)propan-2-ol] | 8.01
C[C@H]1Cn2nc(C34CCC(CO)(CC3)C4)cc2-c2cnc([C@@](C)(O)C(F)(F)F)n21 [Example 87] | 7.96
C[C@H]1Cc2c(cnn2[C@H]2CC[C@](C)(O)CC2)-c2onc([C@@](C)(O)C(F)(F)F)c21 (racemic) [Example 56, (1S,4r)-1-methyl-4-((S)-4-methyl-3-((R)-1,1,1-trifluoro-2-hydroxypropan-2-yl)-4,5-dihydro-6H-isoxazolo[5,4-e]indazol-6-yl)cyclohexan-1-ol and enantiomer thereof] | 7.97
C[C@H]1Cc2c(cnn2C(C)(C)C)-c2onc([C@@](C)(O)C(F)(F)F)c21 (racemic) [Example 16] | 7.91
C[C@H]1Cn2c(nnc2C(F)(F)F)-c2onc([C@@](C)(O)C(F)(F)F)c21 [Example 1, (R)-1,1,1-trifluoro-2-((R)-6-methyl-3-(trifluoromethyl)-5,6-dihydroisoxazolo[5,4-c][1,2,4]triazolo[4,3-a]pyridin-7-yl)propan-2-ol] | 7.61
C[C@H]1Cn2nc(O[C@H]3CC[C@](C)(O)CC3)cc2-c2onc([C@@](C)(O)C(F)(F)F)c21 [Example 65, (1R,4r)-1-methyl-4-(((R)-4-methyl-3-((R)-1,1,1-trifluoro-2-hydroxypropan-2-yl)-4,5-dihydroisoxazolo[5,4-c]pyrazolo[1,5-a]pyridin-8-yl)oxy)cyclohexan-1-ol] | 8.18
C[C@H]1Cn2nc(OCC(C)(C)O)cc2-c2onc([C@@](C)(O)C(F)(F)F)c21 (racemic) [Example 14] | 7.84
C[C@H]1Cn2nc(OCC3COC3)cc2-c2onc([C@@](C)(O)C(F)(F)F)c21 (racemic) [Example 46] | 7.80
C[C@H]1Cc2c(cnn2C(F)F)-c2onc([C@@](C)(O)C(F)(F)F)c21 (racemic) [Example 21] | 7.70
C[C@H]1Cn2nc(C34CCC(C(C)(C)O)(CC3)CO4)cc2-c2cnc([C@@](C)(O)C(F)(F)F)n21 [Example 98, (R)-1,1,1-trifluoro-2-((S)-9-(4-(2-hydroxypropan-2-yl)-2-oxabicyclo[2.2.2]octan-1-yl)-5-methyl-5,6-dihydroimidazo[1,5-a]pyrazolo[5,1-c]pyrazin-3-yl)propan-2-ol] | 8.04
COc1cc2n(n1)C[C@H](C)n1c-2cnc1[C@@](C)(O)C(F)(F)F [Example 67] | 7.94
C[C@H]1Cn2nc(OC3CCOCC3)cc2-c2onc([C@@](C)(O)C(F)(F)F)c21 (racemic) [Example 35] | 7.75
C[C@H]1Cn2nc(N3C[C@@H]4C[C@H]3CO4)cc2-c2cnc([C@@](C)(O)C(F)(F)F)n21 [Example 81] | 7.53
C[C@H]1Cn2c(nnc2C23CC(C(F)(F)F)(C2)C3)-c2onc([C@@](C)(O)C(F)(F)F)c21 [Example 9] | 8.02
C[C@H]1Cc2c(cnn2CC#N)-c2onc([C@@](C)(O)C(F)(F)F)c21 (racemic) [Example 50] | 7.84
